Results from BindingDB's records for doi:10.1111/j.1747-0285.2012.01371.x (Korea Research Institute of Chemical Technology, 2012).

Molecular target: 5-lipoxygenase (Rattus norvegicus)
Test: 5-LOX enzyme assay was carried out with some modifications of ferric oxidation of xylenol orange (FOX) assay, which is based on the complex formation of Fe3+/ xylenol orange with absorption at visible light.
Conditions: pH 7.4

IC50 [nM] | Compound
65 | Oc1ccc(Nc2nc(-c3cccc(F)c3)cs2)cc1 [N-aryl-4-aryl-1,3-thiazole-2-amine, 8]
82 | Oc1ccc(Nc2nc(-c3ccc(Br)cc3)cs2)cc1 [N-aryl-4-aryl-1,3-thiazole-2-amine, 4]
127 | Cc1cc(Nc2nc(-c3ccc(Cl)cc3)cs2)cc(C)c1O [N-aryl-4-aryl-1,3-thiazole-2-amine, 14]
104 | Cc1cc(Nc2nc(-c3ccc(F)cc3)cs2)c(C)cc1O [N-aryl-4-aryl-1,3-thiazole-2-amine, 17]
92 | Oc1ccc(Nc2nc(-c3cc(Cl)ccc3Cl)cs2)cc1 [N-aryl-4-aryl-1,3-thiazole-2-amine, 11]
63 | Cc1cc(Nc2nc(-c3ccc(F)cc3)cs2)cc(Cl)c1O [N-aryl-4-aryl-1,3-thiazole-2-amine, 15]
60 | Nc1ccc(Nc2nc(-c3cc(Cl)ccc3Cl)cs2)cc1 [N-aryl-4-aryl-1,3-thiazole-2-amine, 31]
201 | Nc1ccc(Nc2nc(-c3ccc(Br)cc3)cs2)cc1 [N-aryl-4-aryl-1,3-thiazole-2-amine, 26]
92 | Nc1ccc(Nc2nc(-c3ccc([N+](=O)[O-])cc3)cs2)cc1 [N-aryl-4-aryl-1,3-thiazole-2-amine, 28]
85 | Oc1ccc(Nc2nc(-c3ccc(F)cc3F)cs2)cc1 [N-aryl-4-aryl-1,3-thiazole-2-amine, 12]
93 | Oc1c(Cl)cc(Nc2nc(-c3ccc(F)cc3)cs2)cc1Cl [N-aryl-4-aryl-1,3-thiazole-2-amine, 16]
81 | Oc1ccc(Nc2nc(-c3ccccc3F)cs2)cc1 [N-aryl-4-aryl-1,3-thiazole-2-amine, 7]
421 | Nc1ccccc1Nc1nc(-c2ccc(Cl)cc2)cs1 [N-aryl-4-aryl-1,3-thiazole-2-amine, 29]
146 | Oc1c(Cl)cc(Nc2nc(-c3ccc(Cl)cc3)cs2)cc1Cl [N-aryl-4-aryl-1,3-thiazole-2-amine, 13]
120 | Nc1ccc(Nc2nc(-c3ccccc3)cs2)cc1 [N-aryl-4-aryl-1,3-thiazole-2-amine, 24]
105 | Nc1ccc(Nc2nc(-c3ccc(F)cc3)cs2)cc1 [N-aryl-4-aryl-1,3-thiazole-2-amine, 25]
70 | Nc1ccc(Nc2nc(-c3ccc(F)cc3F)cs2)cc1 [N-aryl-4-aryl-1,3-thiazole-2-amine, 32]
25 | O=[N+]([O-])c1ccc(-c2csc(Nc3ccc(O)cc3)n2)cc1 [N-aryl-4-aryl-1,3-thiazole-2-amine, 6]
